What was measured:
Format in all cases: in vivo, mouse
[1] = system: lean mice; assay: Food intake amount and body weight, 5 week-continuous oral administration, non-obese lean mice; details: lean mice (normal diet); oral 5 weeks; (±)-baclofen 5 mg/kg/day, SKF97541 0.3 mg/kg/day, 3-APPA 5 mg/kg/day
Description: (§1) 5 week-old male C57BL/6N mice (body weight 17 to 20 g, CLEA Japan, Inc.) were purchased and individually fed in tip cages. To the mice, normal pellet diet (CE-2) was administered under free water intake and free food intake. A body weight and a food intake amount over 24 hours were measured every day from the start of feeding. On day 3 after the start of feeding, blood was taken from an orbit after 6 hour-fasting and a blood glucose level and a blood insulin concentration were measured. The mice were divided into a control group and a baclofen treated group (10 mice per each group) so that a body weight, a 24 hour-food intake amount, a blood glucose level, and a blood insulin concentration were equal, and diet induced-obesity (DIO) was started to be induced by administration of high fat diet (High Fat Diet 32, energy fat ratio 60%, CLEA Japan, Inc.) (DIO mice). At the same time as the start of administering the high fat diet, (±)-baclofen was dissolved in drinking water and 5 week-continuous oral administration was started in a dosage of 5 mg per 1 kg of a body weight in 1 day (5 mg/kg/day). A food intake amount and a body weight were measured over time during the 5 week-administration period. (±)-baclofen (5 mg/kg/day) was orally administered also to C57BL/6N mice (lean mice) that are non-obese mice to which normal diet was administered in the same manner as described above, and a food intake amount and a body weight were measured over time.
(§2) 5 week-old male C57BL/6N mice (body weight 17 to 20 g, CLEA Japan, Inc.) were purchased and individually fed in tip cages. Normal pellet diet (CE-2) was administered to the mice under free water intake and free food intake. A body weight and a food intake amount over 24 hours were measured every day from the start of feeding. On day 3 after the start of feeding, blood was taken from an orbit after 6 hour-fasting and a blood glucose level and a blood insulin concentration were measured. The mice were divided into a control group, an SKF97541 treated group and a 3-APPA treated group (10 mice per each group) so that a body weight, a 24 hour-food intake amount, a blood glucose level, and a blood insulin concentration were equal, and diet induced-obesity (DIO) was started to be induced by administration of high fat diet (High Fat Diet 32, energy fat ratio 60%, CLEA Japan, Inc.) (DIO mice). At the same time as the start of administering the high fat diet, SKF97541 (0.3 mg/kg/day) or 3-APPA (5 mg/kg/day) was dissolved in drinking water and 5 week-continuous oral administration was started. A food intake amount and a body weight were measured over time during the 5 week-administration period. SKF97541 (0.3 mg/kg/day) or 3-APPA (5 mg/kg/day) was orally administered also to C57BL/6N mice (lean mice) to which normal diet was administered in the same manner as described above, and a food intake amount and a body weight were measured over time.

[2] = system: DIO mice; assay: Food intake amount and body weight, 5 week-continuous oral administration, diet-induced obese (DIO) mice; details: (±)-baclofen 5 mg/kg/day, SKF97541 0.3 mg/kg/day, 3-APPA 5 mg/kg/day; for body weight increase / food intake amount: DIO mice (high fat diet), oral in drinking water 5 weeks; for time after start of administration from which body weight increase suppression was significant / time after start of administration from which food intake suppression was significant: DIO mice, continued until 5 weeks
Description: as §1, §2

[3] = system: DIO mice; assay: Fasting blood glucose, HbA1c, blood insulin, plasma leptin and adiponectin after 5-week administration, DIO mice; details: (±)-baclofen 5, SKF97541 0.3, 3-APPA 5 mg/kg/day, vs control; for fasting blood glucose level / fasting blood insulin concentration: 6 hour-fasting after 5 weeks oral; for HbA1c value: after 5 weeks oral
Description: The blood glucose level was measured by a glucose analyzer Antisense (HORIBA, Ltd.) promptly after taking blood from an orbit. HbA1c was measured by a glycohemoglobin analyzer HLC-723 GHbV (manufactured by TOSOH Corporation) after preserving blood at −80° C.
After taking blood from an orbit by using a hematocrit tube coated with heparin, blood was centrifuged at 3500 rpm at 4° C. for 15 minutes, and plasma was preserved at −80° C. The plasma concentrations of insulin, leptin and adiponectin were measured by the ELISA method (levis insulin kit (mouse): Shibayagi Co., Ltd., Morinaga Leptin assay kit: Morinaga Institute of Biological Science, Inc., Mouse/rat adiponectin ELISA kit: OTSUKA Pharmaceutical Co., Ltd.).
(±)-baclofen (5 mg/kg/day), SKF97541 (0.3 mg/kg/day) or 3-APPA (5 mg/kg/day) was orally administered to DIO mice for 5 weeks according to the above described method, and then blood was taken from an orbit after 6 hour-fasting and a blood glucose level, an HbA1c value and a blood insulin concentration were measured.
(±)-baclofen (5 mg/kg/day) was orally administered to DIO mice for 5 weeks according to the above described method, and then, blood was taken from an orbit after 6 hour-fasting, and a plasma leptin concentration and a plasma adiponectin concentration were measured. The DIO mice were sacrificed by cervical luxation after the end of the 5-week administration, and then epididymal white adipose tissues and subcutaneous white adipose tissues were surgically removed, and after measuring the weights, they were fixed in 4% formaldehyde. The epididymal white adipose tissues were cut out to prepare a section with a thickness of 8 μm and subjected to Hematoxylin-Eosin stain (H-E stain) and a form (size) of a fat cell was examined by using an image analysis system, Neurolucida (MicroBrightField Japan, Inc.).

[4] = system: db/^+m mice; assay: Food intake amount and body weight, 5 week-continuous oral administration, non-obese db/+m mice; details: SKF97541 10×10^−6 M, 3-APPA 100×10^−6 M in drinking water
Description: 5 week-old male C57BL/KsJ-db/^+m mice (db/^+m mice: body weight 19 to 23 g, Japan SLC, Inc.) were purchased and individually fed in tip cages. To the db/^+m mice, normal pellet diet (CE-2) was administered under free water intake and free food intake. A body weight and a food intake amount over 24 hours were measured every day from the start of feeding. On day 3 after the start of feeding, blood was taken from an orbit after 6 hour-fasting and a blood glucose level and a blood insulin concentration were measured. The db/^+m mice were divided into two groups (10 mice per each group) so that a body weight, a 24 hour-food intake amount, a blood glucose level, and a blood insulin concentration were equal, and defined to be a control group and a baclofen treated group. After division into the groups, from day 5 after the start of feeding, (±)-baclofen was dissolved in drinking water and 5 week-continuous oral administration was started in the baclofen treated group. (±)-baclofen was dissolved in drinking water at a concentration of 2.7 mg/dl used in the high concentration treated group in the experiment of db/db mice. A food intake amount and a body weight of the db/^+m mice were measured over time, and a rectal temperature was measured 5 weeks after the start of the administration. Blood was taken after the 5-week administration of (±)-baclofen, and the db/^+m mice were sacrificed by cervical luxation.
5 week-old male C57BL/KsJ-db/db mice (db/db mice: body weight 19 to 25 g, Japan SLC, Inc.) were purchased and individually fed in tip cages. Normal pellet diet (CE-2) was administered to the db/db mice under free water intake and free food intake. A body weight and a food intake amount over 24 hours were measured every day from the start of feeding. On day 3 after the start of feeding, blood was taken from an orbit after 6 hour-fasting and a blood glucose level and a blood insulin concentration were measured. The db/db mice were divided into three groups (10 mice per each group) so that a body weight, a 24 hour-food intake amount, a blood glucose level, and a blood insulin concentration were equal and defined to be a control group, an SKF97541 treated group and a 3-APPA treated group. SKF97541 and 3-APPA were dissolved in drinking water at respective concentrations of 10×10^−6 M and 100×10^−6 M, and continuously orally administered for 5 weeks, and a food intake amount and a body weight were measured over time during the administration period. SKF97541 (10×10^−6 M) or 3-APPA (100×10^−6M) was dissolved in drinking water and orally administered also to db/^+m mice, and a food intake amount and a body weight were measured over time in the same manner.

[5] = system: db/db mice; assay: Food intake amount and body weight, 5 week-continuous oral administration in drinking water, db/db mice; details: SKF97541 10×10^−6 M, 3-APPA 100×10^−6 M in drinking water; for time after start of administration from which body weight increase suppression was significant / time after start of administration from which cumulative food intake suppression was significant: continued until end of experiment; for body weight increase / cumulative food intake amount: oral, 5 weeks

Compound	body weight [1]	food intake amount [1]	body weight increase [2]	food intake amount [2]	time after start of administration from which body weight increase suppression was significant [2] [week]	time after start of administration from which food intake suppression was significant [2] [week]	fasting blood glucose level [3]	fasting blood insulin concentration [3]	HbA1c value [3]	body weight [4]	food intake amount [4]	time after start of administration from which body weight increase suppression was significant [5] [week]	time after start of administration from which cumulative food intake suppression was significant [5] [weeks]	body weight increase [5]	cumulative food intake amount [5]
CP(=O)(O)CCCN [SKF97541, 3-aminopropyl-(methyl)phosphinic acid]	did not give significant effects	did not give significant effects	significantly suppressed	significantly suppressed	1	1	significant decreases	significant decreases	significant decreases	did not give significant effects	did not give significant effects	1	2	significantly suppressed	significantly suppressed
NCCCP(=O)(O)O [3-APPA, 3-aminopropylphosphonic acid]	did not give significant effects	did not give significant effects	significantly suppressed	significantly suppressed	1	1	significant decreases	significant decreases	significant decreases	did not give significant effects	did not give significant effects	1	1	significantly suppressed	significantly suppressed

Reference: patent publication US20100197789A1, “ANTI-OBESITY AGENT AND USE THEREOF” (National University Corporation Nagoya University, priority 2006, published 2010)
